These results are taken from patent publication US10925858B2, “S-nitrosoglutathione (GSNO) and GSNO reductase inhibitors for use in therapy” (MUSC FOUNDATION FOR RESEARCH DEVELOPMENT, priority 2017, dated 2021).

One data set deals with BBB leakage. As to the kind of experiment: Evan's blue extravasation assay (BBB leakage) in EAE mice. The note with it: GSNO 1 mg/kg/day or FeTPPS 30 mg/kg/day i.p. The data set is classed as in vivo, C57BL/6J mice. How it is done:
(§1) EAE was induced as described previously (Nath et al., 2009). Animal procedures were approved by the institutional animal care and use committee of MUSC (AR #1644). Briefly, female C57BL/6J mice of 8-12 weeks of age weighing 18-22 g (The Jackson Laboratory, Bar Harbor, Me., USA) were randomly divided into four groups: 1) EAE animals treated with vehicle (EAE; n=8), 2) EAE with GSNO (1 mg/kg body weight per day; i.p.) treatment (EAE+GSNO; n=12), 3) EAE with FeTPPS (30 mg/kg body weight per day; i.p.) treatment (EAE+FeTPPS; n=8), 4) control with vehicle (Ctrl; n=8). The group size was determined by power analysis based on our previous data (Nadi et al., 2009). Then, the mice were immunized subcutaneously in the flank regions with MOG35-55 peptide (MOG; 200 ug; Peptide International) emulsified (1:1) in 100 ul complete Freund's adjuvant (CFA) CHI day 0 and day 7. […] Clinical signs of EAE were scored in animal facility in a blinded fashion to experimenter between 2 and 4 pm daily by examiners blinded to experimental treatments using the following scale: 0=no clinical signs of disease; 1=limp tail or waddling gait with tail tonicity; 2=waddling gait with limp tail (ataxia); 2.5=ataxia with partial limb paralysis; 3=full paralysis of one limb; 3.5=full paralysis of one limb with partial paralysis of second limb; 4=full paralysis of two limbs; 4.5=moribund stage; 5=death. […]

A further data set deals with EAE mice. As to the kind of experiment: EAE (MOG35-55) clinical disease, GSNO vs FeTPPS. The format is in vivo, C57BL/6J mice. As to conditions: GSNO 1 mg/kg/i.p./day or FeTPPS 30 mg/kg/i.p./day from disease onset (day 13). How it is done: as §1
A further data set deals with lymphocytes in blood. As to the kind of experiment: Total lymphocyte count in blood of normal mice (lymphopenic effect). The note with it: normal mice without EAE, 1 mg/kg/day for 19 days. The format is in vivo, C57BL/6 mice. The method, then: The bloods collected in EDTA blood collection tubes (BD Biosciences) were analyzed by an automated hematology analyzer for counting total lymphocytes. For counting of each subset of lymphocytes, 50 μl of blood was mixed with staining buffer (20 μl) containing fluorescence labelled antibodies and red-blood-cells were lysed with FACS lysing solution (BD Biosciences) prior to fluorescence flow-cytometric analysis. For staining of CD3+, CD4+, and CD8+ cells, allophycocvanin (APC)-labeled anti-mouse CD3 (eBioscience clone 17A2), Fluorescein isothiocyanate (FITC)-labeled anti-mouse CD4 (eBioscience clone RM4-5), APC-labeled anti-mouse CD8 (eBioscience clone 53-6.7) and appropriate isotype matched controls.

Data set [1] relates to protein associated S-nitrosothiols. Briefly: Biotin-switch analysis of protein associated S-nitrosothiols in spleens of EAE mice. The format is in vivo, C57BL/6 mice. The note with it: vs control and EAE mice. How it is done:
Female C57BL/6 mice of 8-12 weeks of age, purchased from Jackson Laboratory, were provided with food and water ad libitum and were kept in pathogen free animal care facility of Medical University of South Carolina (MUSC) throughout the study. All procedures were conducted in accordance with accepted standards of humane care as approved by the Institutional Animal Care and Use Committee (Approved number: AR #1644). EAE was induced as described previously (Nath et al., 2009). Briefly, mice were immunized subcutaneously in the flank regions with MOG35-55 peptide (MOG; 200 μg; Peptide International) emulsified (1:1) in 100 ul complete Freund's adjuvant (CFA) on day 0 and day 7. Additionally, 300 ng of Pertussis toxin (Sigma-Aldrich, St. Louis, Mo.) was given on day 0 and day 2 by i.p. injection. […] Clinical signs of EAE were scored by examiners blinded to experimental treatments using the following scale: 0=no clinical signs of disease; 1=piloerection and sluggish; 2=limp tail (ataxia); 2.5=ataxia with partial hind limb paralysis; 3=full paralysis of hind limb; 3.5=full paralysis of hind limb with paralysis of one fore limb; 4=full paralysis of two limbs; 4.5=moribund stage; 5=death. […]
Protein S-Nitrosylation was detected using the biotin-switch method with slight modification as described in our previous study (Kim et al., 2014). […]

For the compound `Cl.O=S(=O)([O-])c1ccc(-c2c3nc(c(-c4ccc(S(=O)(=O)O)cc4)c4ccc([nH]4)c(-c4ccc(S(=O)(=O)O)cc4)c4nc(c(-c5ccc(S(=O)(=O)O)cc5)c5ccc2[nH]5)C=C4)C=C3)cc1.[Fe]` [FeTPPS, 5,10,15,20-Tetrakis(4-sulfonatophenyl)porphyrinato Iron (III), Cl, reference compound], the “extravasation of Evan's blue dye into the CNS” value in the data set on BBB leakage was “significantly decreased”. The “efficacy against clinical disease of EAE” value in the data set with EAE mice was “significant efficacy but to a lower degree than GSNO treatment”.

In the case of `N[C@@H](CCC(=O)N[C@@H](CSN=O)C(=O)NCC(=O)O)C(=O)O` [GSNO, S-nitrosoglutathione], in the data set on lymphocytes in blood, the “numbers of total lymphocytes, CD3+ T cells, CD4+ T cells and CD8+ cells in blood” value was “no obvious effect”. Further, the “spleen levels of protein-associated S-nitrosothiols” value in data set [1] was “increased”. For the same compound, the “extravasation of Evan's blue dye into the CNS” value with BBB leakage is listed as “significantly decreased”. The “efficacy against clinical disease of EAE” value in the data set on EAE mice is “great efficacy”.

For the compound `Cc1cc(C(N)=O)ccc1-n1c(CCC(=O)O)ccc1-c1ccc(-n2ccnc2)cc1` [N6022, reference compound], the “numbers of total lymphocytes, CD3+ T cells, CD4+ T cells and CD8+ cells in blood” value with lymphocytes in blood is on record as “did not affect”. Besides, in data set [1], the “spleen levels of protein-associated S-nitrosothiols” value is given as “increased”.
